Measurements as given in patent US20230365592A1 (Agios Pharmaceuticals, Inc., priority 2022, published 2023).

The molecules below were run against T1, human PAH with the R408W mutation (Homo sapiens, UniProt P00439, R408W) (assay: Cell Based Phenylalanine Flux Assay). Conditions: A375 cells expressing human R408W PAH; 24 hrs compound incubation; 13C-Tyrosine by LC-MS; average where tested multiple times; read-out: AC50.
T1 construct: expressed in transfected cells
T1 sequence (P00439 1-452 R408W): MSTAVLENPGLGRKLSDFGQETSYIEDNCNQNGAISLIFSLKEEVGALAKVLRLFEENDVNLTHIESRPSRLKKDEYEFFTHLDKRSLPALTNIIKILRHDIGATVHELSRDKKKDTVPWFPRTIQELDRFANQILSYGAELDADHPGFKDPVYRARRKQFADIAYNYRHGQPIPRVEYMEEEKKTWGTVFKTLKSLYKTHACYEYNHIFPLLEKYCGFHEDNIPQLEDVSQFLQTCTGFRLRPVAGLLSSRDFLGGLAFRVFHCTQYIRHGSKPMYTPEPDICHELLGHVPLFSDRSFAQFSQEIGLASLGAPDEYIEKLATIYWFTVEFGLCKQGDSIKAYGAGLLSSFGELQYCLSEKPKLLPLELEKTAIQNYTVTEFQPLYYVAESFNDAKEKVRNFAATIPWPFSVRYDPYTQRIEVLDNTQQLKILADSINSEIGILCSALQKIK
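Further: after compound treatment, cells received sepiapterin plus isotope-labelled Phenylalanine for 4 hours, then labelled Tyrosine in the medium was quantified, 10-point 2-fold dilution series run in duplicate.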

Row | AC50 [nM] | Compound
1 | 500 to 1000 | Cc1cccn2nc([C@H]3c4nc[nH]c4CCN3C(=O)c3cnn4ccccc34)cc12 [Example 1287, (R)-(4-(4-methylpyrazolo[1,5-a]pyridin-2-yl)-6,7-dihydro-1H-imidazo[4,5-c]pyridin-5(4H)-yl)(pyrazolo[1,5-a]pyridin-3-yl)methanone]
2 | 500 to 1000 | O=C(c1cnn2ccccc12)N1CCc2[nH]cnc2[C@@H]1c1cc2c(F)cccn2n1 [Example 1288, (R)-(4-(4-fluoropyrazolo[1,5-a]pyridin-2-yl)-6,7-dihydro-1H-imidazo[4,5-c]pyridin-5(4H)-yl)(pyrazolo[1,5-a]pyridin-3-yl)methanone]
3 | < 500 | O=C(c1cnn2ccccc12)N1CCc2[nH]cnc2[C@H]1c1cc2c(F)cccn2n1 [Example 1289, (S)-(4-(4-fluoropyrazolo[1,5-a]pyridin-2-yl)-6,7-dihydro-1H-imidazo[4,5-c]pyridin-5(4H)-yl)(pyrazolo[1,5-a]pyridin-3-yl)methanone]
4 | 1000 to 5000 | c1ccc(-c2nnc(N3CCc4[nH]cnc4[C@@H]3c3cc4ccccn4n3)o2)nc1 [Example 1290, (R)-2-(4-(pyrazolo[1,5-a]pyridin-2-yl)-6,7-dihydro-1H-imidazo[4,5-c]pyridin-5(4H)-yl)-5-(pyridin-2-yl)-1,3,4-oxadiazole]
5 | 500 to 1000 | c1ccc(-c2nnc(N3CCc4[nH]cnc4[C@H]3c3cc4ccccn4n3)o2)nc1 [Example 1291, (S)-2-(4-(pyrazolo[1,5-a]pyridin-2-yl)-6,7-dihydro-1H-imidazo[4,5-c]pyridin-5(4H)-yl)-5-(pyridin-2-yl)-1,3,4-oxadiazole]
6 | < 500 | O=C(c1nnc(-c2cccnc2)o1)N1CCc2[nH]cnc2[C@H]1c1cc2c(Cl)cccn2n1 [Example 1292, (S)-(4-(4-chloropyrazolo[1,5-a]pyridin-2-yl)-6,7-dihydro-1H-imidazo[4,5-c]pyridin-5(4H)-yl)(5-(pyridin-3-yl)-1,3,4-oxadiazol-2-yl)methanone]
7 | 1000 to 5000 | O=C(c1nnc(-c2cccnc2)o1)N1CCc2[nH]cnc2[C@@H]1c1cc2c(Cl)cccn2n1 [Example 1293, (R)-(4-(4-chloropyrazolo[1,5-a]pyridin-2-yl)-6,7-dihydro-1H-imidazo[4,5-c]pyridin-5(4H)-yl)(5-(pyridin-3-yl)-1,3,4-oxadiazol-2-yl)methanone]
8 | 1000 to 5000 | O=C(c1nnc(-c2ncccc2F)o1)N1CCc2[nH]cnc2[C@@H]1c1cc2c(Cl)cccn2n1 [Example 1294, (R)-(4-(4-chloropyrazolo[1,5-a]pyridin-2-yl)-6,7-dihydro-1H-imidazo[4,5-c]pyridin-5(4H)-yl)(5-(3-fluoropyridin-2-yl)-1,3,4-oxadiazol-2-yl)methanone]
9 | < 500 | O=C(c1nnc(-c2ncccc2F)o1)N1CCc2[nH]cnc2[C@H]1c1cc2c(Cl)cccn2n1 [Example 1295, (S)-(4-(4-chloropyrazolo[1,5-a]pyridin-2-yl)-6,7-dihydro-1H-imidazo[4,5-c]pyridin-5(4H)-yl)(5-(3-fluoropyridin-2-yl)-1,3,4-oxadiazol-2-yl)methanone]
10 | < 500 | CC1(c2nnc(C(=O)N3CCc4[nH]cnc4[C@H]3c3cc4cccc(Cl)n4n3)o2)CC1 [Example 1296, (S)-(4-(7-chloropyrazolo[1,5-a]pyridin-2-yl)-6,7-dihydro-1H-imidazo[4,5-c]pyridin-5(4H)-yl)(5-(1-methylcyclopropyl)-1,3,4-oxadiazol-2-yl)methanone]

The next lines start with the molecule.

Row | Compound | AC50 [nM]
11 | O=C(c1nnc(-c2ccncn2)o1)N1CCc2[nH]cnc2[C@@H]1c1cc2c(F)cccn2n1 [Example 1259, (R)-(4-(4-fluoropyrazolo[1,5-a]pyridin-2-yl)-6,7-dihydro-1H-imidazo[4,5-c]pyridin-5(4H)-yl)(5-(pyrimidin-4-yl)-1,3,4-oxadiazol-2-yl)methanone] | 1000 to 5000
12 | Cc1nc(C(C)(C)F)oc1C(=O)N1CCc2[nH]cnc2[C@H]1c1cc2c(C)cccn2n1 [Example 1260, (S)-(2-(2-fluoropropan-2-yl)-4-methyloxazol-5-yl)(4-(4-methylpyrazolo[1,5-a]pyridin-2-yl)-6,7-dihydro-1H-imidazo[4,5-c]pyridin-5(4H)-yl)methanone] | < 500
13 | Cc1nc(C(C)(C)F)oc1C(=O)N1CCc2[nH]cnc2[C@H]1c1cc2c(C(F)(F)F)cccn2n1 [Example 1262, (S)-(2-(2-fluoropropan-2-yl)-4-methyloxazol-5-yl)(4-(4-(trifluoromethyl)pyrazolo[1,5-a]pyridin-2-yl)-6,7-dihydro-1H-imidazo[4,5-c]pyridin-5(4H)-yl)methanone] | < 500
14 | Cc1nc(C(C)(C)F)oc1C(=O)N1CCc2[nH]cnc2[C@H]1c1cc2cccc(Cl)n2n1 [Example 1266, (S)-(4-(7-chloropyrazolo[1,5-a]pyridin-2-yl)-6,7-dihydro-1H-imidazo[4,5-c]pyridin-5(4H)-yl)(2-(2-fluoropropan-2-yl)-4-methyloxazol-5-yl)methanone] | < 500
15 | O=C(c1oc(C2(O)CC2)nc1C(F)F)N1CCc2[nH]cnc2[C@H]1c1cc2cccc(C(F)(F)F)n2n1 [Example 1268, (S)-(4-(difluoromethyl)-2-(1-hydroxycyclopropyl)oxazol-5-yl)(4-(7-(trifluoromethyl)pyrazolo[1,5-a]pyridin-2-yl)-6,7-dihydro-1H-imidazo[4,5-c]pyridin-5(4H)-yl)methanone] | < 500
16 | O=C(c1cnn2ccccc12)N1CCc2[nH]cnc2[C@H]1c1cc2c(C(F)(F)F)cccn2n1 [Example 1270, (S)-pyrazolo[1,5-a]pyridin-3-yl(4-(4-(trifluoromethyl)pyrazolo[1,5-a]pyridin-2-yl)-6,7-dihydro-1H-imidazo[4,5-c]pyridin-5(4H)-yl)methanone] | < 500
17 | O=C(c1cnn2ccccc12)N1CCc2[nH]cnc2[C@H]1c1cc2c(Cl)cccn2n1 [Example 1272, (S)-(4-(4-chloropyrazolo[1,5-a]pyridin-2-yl)-6,7-dihydro-1H-imidazo[4,5-c]pyridin-5(4H)-yl)(pyrazolo[1,5-a]pyridin-3-yl)methanone] | < 500
18 | Cc1nc(C(C)(C)F)oc1C(=O)N1CCc2[nH]cnc2[C@@H]1c1cc2c(F)cccn2n1 [Example 1274, (R)-(2-(2-fluoropropan-2-yl)-4-methyloxazol-5-yl)(4-(4-fluoropyrazolo[1,5-a]pyridin-2-yl)-6,7-dihydro-1H-imidazo[4,5-c]pyridin-5(4H)-yl)methanone] | < 500
19 | Cc1nc(C(C)(C)F)oc1C(=O)N1CCc2[nH]cnc2[C@H]1c1cc2c(F)cccn2n1 [Example 1275, (S)-(2-(2-fluoropropan-2-yl)-4-methyloxazol-5-yl)(4-(4-fluoropyrazolo[1,5-a]pyridin-2-yl)-6,7-dihydro-1H-imidazo[4,5-c]pyridin-5(4H)-yl)methanone] | < 500
20 | Cc1nc(C(C)(C)F)oc1C(=O)N1CCc2[nH]cnc2[C@H]1c1cc2c(Cl)cccn2n1 [Example 1276, (S)-(4-(4-chloropyrazolo[1,5-a]pyridin-2-yl)-6,7-dihydro-1H-imidazo[4,5-c]pyridin-5(4H)-yl)(2-(2-fluoropropan-2-yl)-4-methyloxazol-5-yl)methanone] | < 500
21 | Cc1nc(C(C)(C)F)oc1C(=O)N1CCc2[nH]cnc2[C@@H]1c1cc2c(Cl)cccn2n1 [Example 1277, (R)-(4-(4-chloropyrazolo[1,5-a]pyridin-2-yl)-6,7-dihydro-1H-imidazo[4,5-c]pyridin-5(4H)-yl)(2-(2-fluoropropan-2-yl)-4-methyloxazol-5-yl)methanone] | < 500
22 | Cc1nc(C(C)(C)F)oc1C(=O)N1CCc2[nH]cnc2[C@H]1c1cc2cccc(F)n2n1 [Example 1278, (S)-(2-(2-fluoropropan-2-yl)-4-methyloxazol-5-yl)(4-(7-fluoropyrazolo[1,5-a]pyridin-2-yl)-6,7-dihydro-1H-imidazo[4,5-c]pyridin-5(4H)-yl)methanone] | < 500
23 | Cc1cccc2cc([C@H]3c4nc[nH]c4CCN3C(=O)c3oc(C4(O)CC4)nc3C(F)F)nn12 [Example 1281, (R)-(4-(difluoromethyl)-2-(1-hydroxycyclopropyl)oxazol-5-yl)(4-(7-methylpyrazolo[1,5-a]pyridin-2-yl)-6,7-dihydro-1H-imidazo[4,5-c]pyridin-5(4H)-yl)methanone] | 1000 to 5000
24 | Cc1nnc(C(=O)N2CCc3[nH]cnc3[C@H]2c2cc3c(C(F)F)cccn3n2)o1 [Example 1283, (S)-(4-(4-(difluoromethyl)pyrazolo[1,5-a]pyridin-2-yl)-6,7-dihydro-1H-imidazo[4,5-c]pyridin-5(4H)-yl)(5-methyl-1,3,4-oxadiazol-2-yl)methanone] | 500 to 1000
25 | CC1(c2nnc(C(=O)N3CCc4[nH]cnc4[C@H]3c3cc4ccccn4n3)o2)CC1 [Example 1284, (S)-(5-(1-methylcyclopropyl)-1,3,4-oxadiazol-2-yl)(4-(pyrazolo[1,5-a]pyridin-2-yl)-6,7-dihydro-1H-imidazo[4,5-c]pyridin-5(4H)-yl)methanone] | < 500
26 | CC1(c2nnc(C(=O)N3CCc4[nH]cnc4[C@@H]3c3cc4ccccn4n3)o2)CC1 [Example 1285, (R)-(5-(1-methylcyclopropyl)-1,3,4-oxadiazol-2-yl)(4-(pyrazolo[1,5-a]pyridin-2-yl)-6,7-dihydro-1H-imidazo[4,5-c]pyridin-5(4H)-yl)methanone] | 1000 to 5000
27 | Cc1cccn2nc([C@@H]3c4nc[nH]c4CCN3C(=O)c3cnn4ccccc34)cc12 [Example 1286, (S)-(4-(4-methylpyrazolo[1,5-a]pyridin-2-yl)-6,7-dihydro-1H-imidazo[4,5-c]pyridin-5(4H)-yl)(pyrazolo[1,5-a]pyridin-3-yl)methanone] | < 500
